Source: ChEMBL document CHEMBL5463722, “Data for DCP probe BI-5524” (2023)
Blank lines part the entries; values can stand above or below the molecule they belong to. The source made the active and inactive calls. No cut-off for these calls is given here.

Legend:
[1] = biological target: 5-hydroxytryptamine receptor 1A (Homo sapiens) (UniProt P08908); experiment: 5-HT1A Eurofins-Cerep binding assay; parameters: ligand concentration 0.5 nM; conditions: Compound concentration 10.0 uM
[2] = biological target: 5-hydroxytryptamine receptor 2A (Homo sapiens) (UniProt P28223); experiment: Agonist activity in the Eurofins Cerep SafetyScreen44 (BI) against 5HT2AH_AGON by Scintillation counting (Cerep_471); conditions: Compound concentration 10.0 uM
[3] = biological target: 5-hydroxytryptamine receptor 2B (Homo sapiens) (UniProt P41595); experiment: 5-HT2B Eurofins-Cerep binding assay; conditions: Compound concentration 10.0 uM
Chain of 5-hydroxytryptamine receptor 2B (Homo sapiens) (P41595 whole entry): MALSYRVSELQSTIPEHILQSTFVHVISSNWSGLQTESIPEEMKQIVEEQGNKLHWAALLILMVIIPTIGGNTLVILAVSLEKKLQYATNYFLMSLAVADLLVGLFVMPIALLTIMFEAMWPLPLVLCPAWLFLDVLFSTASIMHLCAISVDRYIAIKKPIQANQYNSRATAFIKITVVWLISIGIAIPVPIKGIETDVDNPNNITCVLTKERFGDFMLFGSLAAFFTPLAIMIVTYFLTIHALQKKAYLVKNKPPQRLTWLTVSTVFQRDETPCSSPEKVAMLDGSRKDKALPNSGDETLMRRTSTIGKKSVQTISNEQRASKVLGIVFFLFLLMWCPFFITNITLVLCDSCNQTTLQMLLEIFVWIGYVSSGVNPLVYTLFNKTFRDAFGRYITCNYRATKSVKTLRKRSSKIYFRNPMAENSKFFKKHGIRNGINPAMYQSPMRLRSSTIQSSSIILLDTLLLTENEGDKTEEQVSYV

[4] = biological target: 5-hydroxytryptamine receptor 3A (Homo sapiens) (UniProt P46098); experiment: 5-HT3 Eurofins-Cerep binding assay; parameters: ligand concentration 0.5 nM; conditions: Compound concentration 10.0 uM
[5] = biological target: Adenosine receptor A2a (Homo sapiens) (UniProt P29274); experiment: A2A Eurofins-Cerep binding assay; parameters: ligand concentration 6 nM
Chain of Adenosine receptor A2a (Homo sapiens) (P29274 whole entry): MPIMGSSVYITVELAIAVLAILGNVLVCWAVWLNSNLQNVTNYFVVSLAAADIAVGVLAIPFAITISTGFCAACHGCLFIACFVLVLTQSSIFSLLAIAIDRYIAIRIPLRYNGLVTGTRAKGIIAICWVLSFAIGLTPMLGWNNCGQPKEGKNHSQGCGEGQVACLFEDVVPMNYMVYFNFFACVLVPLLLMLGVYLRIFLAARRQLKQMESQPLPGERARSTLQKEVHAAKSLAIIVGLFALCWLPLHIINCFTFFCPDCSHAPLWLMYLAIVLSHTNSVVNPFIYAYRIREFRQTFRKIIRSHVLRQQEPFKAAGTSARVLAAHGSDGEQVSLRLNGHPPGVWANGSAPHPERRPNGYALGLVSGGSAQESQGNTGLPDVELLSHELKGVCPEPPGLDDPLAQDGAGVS

[6] = biological target: Beta-1 adrenergic receptor (Homo sapiens) (UniProt P08588); experiment: beta 1 Eurofins-Cerep binding assay; parameters: ligand concentration 0.3 nM
Chain of Beta-1 adrenergic receptor (Homo sapiens) (P08588 whole entry, looked up): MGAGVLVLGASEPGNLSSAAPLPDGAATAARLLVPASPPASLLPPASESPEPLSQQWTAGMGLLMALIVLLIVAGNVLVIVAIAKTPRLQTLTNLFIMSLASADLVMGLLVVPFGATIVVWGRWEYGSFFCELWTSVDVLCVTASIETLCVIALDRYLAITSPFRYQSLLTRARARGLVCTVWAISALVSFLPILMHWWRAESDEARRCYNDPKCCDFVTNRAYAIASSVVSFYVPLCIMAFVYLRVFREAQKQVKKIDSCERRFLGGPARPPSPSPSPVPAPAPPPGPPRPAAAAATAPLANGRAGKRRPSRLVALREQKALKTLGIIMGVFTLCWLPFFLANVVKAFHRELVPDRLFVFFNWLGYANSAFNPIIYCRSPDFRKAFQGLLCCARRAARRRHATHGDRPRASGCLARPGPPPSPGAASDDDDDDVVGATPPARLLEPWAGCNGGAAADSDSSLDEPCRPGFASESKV

[7] = biological target: Beta-2 adrenergic receptor (Homo sapiens) (UniProt P07550); experiment: beta 2 Eurofins-Cerep binding assay
Chain of Beta-2 adrenergic receptor (Homo sapiens) (P07550 whole entry, looked up): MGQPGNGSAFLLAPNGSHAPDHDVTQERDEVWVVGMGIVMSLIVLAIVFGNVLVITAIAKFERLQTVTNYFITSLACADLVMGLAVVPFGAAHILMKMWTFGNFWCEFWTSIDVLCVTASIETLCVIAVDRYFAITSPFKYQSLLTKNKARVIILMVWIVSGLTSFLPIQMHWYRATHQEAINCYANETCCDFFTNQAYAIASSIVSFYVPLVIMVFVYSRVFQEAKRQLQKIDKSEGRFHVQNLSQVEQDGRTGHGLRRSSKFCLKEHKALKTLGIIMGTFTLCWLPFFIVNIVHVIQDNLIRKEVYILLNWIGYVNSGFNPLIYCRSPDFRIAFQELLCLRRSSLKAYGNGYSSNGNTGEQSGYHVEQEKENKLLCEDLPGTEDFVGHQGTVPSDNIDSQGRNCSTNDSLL

Rattus norvegicus [8] = species on record: Rattus norvegicus; experiment: Activity against BZD/CENTR/R in the Eurofins Cerep SafetyScreen44 (BI) by Radioactive Assay (Cerep_28); type: protein-complex assay
[9] = biological target: T1, Cholecystokinin receptor type A (Homo sapiens) (UniProt P32238); experiment: CCK1 (CCKA) Eurofins-Cerep binding assay; parameters: ligand concentration 0.08 nM
T1 sequence (whole entry): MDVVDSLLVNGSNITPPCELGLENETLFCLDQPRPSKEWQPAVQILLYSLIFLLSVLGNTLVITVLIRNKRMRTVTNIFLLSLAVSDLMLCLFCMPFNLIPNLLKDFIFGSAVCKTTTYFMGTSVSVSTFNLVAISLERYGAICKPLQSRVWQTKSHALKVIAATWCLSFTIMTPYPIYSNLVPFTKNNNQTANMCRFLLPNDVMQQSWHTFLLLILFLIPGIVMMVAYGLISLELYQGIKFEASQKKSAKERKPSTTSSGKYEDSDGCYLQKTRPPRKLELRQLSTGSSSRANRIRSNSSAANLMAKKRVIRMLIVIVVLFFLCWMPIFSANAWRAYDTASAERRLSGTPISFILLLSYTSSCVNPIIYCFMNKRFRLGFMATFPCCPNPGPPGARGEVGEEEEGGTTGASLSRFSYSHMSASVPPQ

[10] = biological target: D(1A) dopamine receptor (Homo sapiens) (UniProt P21728); experiment: D1 Eurofins-Cerep binding assay; parameters: ligand concentration 0.3 nM; conditions: Compound concentration 10.0 uM
[11] = biological target: D(2) dopamine receptor (Homo sapiens) (UniProt P14416); experiment: Agonist activity in the Eurofins Cerep SafetyScreen44 (BI) against D2SH_AGON by Scintillation counting (Cerep_1322); conditions: Compound concentration 10.0 uM
[12] = biological target: Sodium-dependent dopamine transporter (Homo sapiens) (UniProt Q01959); experiment: dopamine transporter Eurofins-Cerep binding assay; conditions: Compound concentration 10.0 uM
[13] = biological target: Delta-type opioid receptor (Homo sapiens) (UniProt P41143); experiment: delta (DOP) Eurofins-Cerep binding assay; parameters: ligand concentration 0.5 nM; conditions: Compound concentration 10.0 uM
Chain of Delta-type opioid receptor (Homo sapiens) (P41143 whole entry): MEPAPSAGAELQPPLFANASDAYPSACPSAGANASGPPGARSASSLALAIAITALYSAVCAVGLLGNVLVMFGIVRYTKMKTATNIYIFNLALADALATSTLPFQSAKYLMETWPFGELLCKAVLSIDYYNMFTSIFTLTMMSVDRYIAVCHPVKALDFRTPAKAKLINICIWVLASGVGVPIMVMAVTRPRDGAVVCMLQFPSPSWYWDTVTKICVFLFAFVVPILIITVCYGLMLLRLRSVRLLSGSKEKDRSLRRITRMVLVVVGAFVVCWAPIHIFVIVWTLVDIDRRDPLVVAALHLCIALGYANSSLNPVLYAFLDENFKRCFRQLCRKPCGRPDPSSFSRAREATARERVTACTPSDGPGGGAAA

[14] = biological target: Endothelin-1 receptor (Homo sapiens) (UniProt P25101); experiment: ETA Eurofins-Cerep binding assay; parameters: ligand concentration 0.03 nM; conditions: Compound concentration 10.0 uM
Chain of Endothelin-1 receptor (Homo sapiens) (P25101 whole entry): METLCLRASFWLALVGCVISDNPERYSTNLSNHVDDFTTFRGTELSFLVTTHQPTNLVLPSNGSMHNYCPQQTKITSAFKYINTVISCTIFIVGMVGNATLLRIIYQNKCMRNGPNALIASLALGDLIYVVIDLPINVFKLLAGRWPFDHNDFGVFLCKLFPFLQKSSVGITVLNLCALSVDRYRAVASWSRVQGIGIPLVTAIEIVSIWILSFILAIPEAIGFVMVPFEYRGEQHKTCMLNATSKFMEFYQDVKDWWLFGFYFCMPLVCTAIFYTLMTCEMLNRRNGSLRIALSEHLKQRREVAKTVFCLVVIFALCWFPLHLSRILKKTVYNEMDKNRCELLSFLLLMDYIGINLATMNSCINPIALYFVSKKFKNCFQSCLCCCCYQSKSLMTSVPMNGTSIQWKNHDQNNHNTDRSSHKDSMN

[15] = biological target: Glucocorticoid receptor (Homo sapiens) (UniProt P04150); experiment: GR Eurofins-Cerep binding assay; conditions: Compound concentration 10.0 uM
Chain of Glucocorticoid receptor (Homo sapiens) (P04150 whole entry): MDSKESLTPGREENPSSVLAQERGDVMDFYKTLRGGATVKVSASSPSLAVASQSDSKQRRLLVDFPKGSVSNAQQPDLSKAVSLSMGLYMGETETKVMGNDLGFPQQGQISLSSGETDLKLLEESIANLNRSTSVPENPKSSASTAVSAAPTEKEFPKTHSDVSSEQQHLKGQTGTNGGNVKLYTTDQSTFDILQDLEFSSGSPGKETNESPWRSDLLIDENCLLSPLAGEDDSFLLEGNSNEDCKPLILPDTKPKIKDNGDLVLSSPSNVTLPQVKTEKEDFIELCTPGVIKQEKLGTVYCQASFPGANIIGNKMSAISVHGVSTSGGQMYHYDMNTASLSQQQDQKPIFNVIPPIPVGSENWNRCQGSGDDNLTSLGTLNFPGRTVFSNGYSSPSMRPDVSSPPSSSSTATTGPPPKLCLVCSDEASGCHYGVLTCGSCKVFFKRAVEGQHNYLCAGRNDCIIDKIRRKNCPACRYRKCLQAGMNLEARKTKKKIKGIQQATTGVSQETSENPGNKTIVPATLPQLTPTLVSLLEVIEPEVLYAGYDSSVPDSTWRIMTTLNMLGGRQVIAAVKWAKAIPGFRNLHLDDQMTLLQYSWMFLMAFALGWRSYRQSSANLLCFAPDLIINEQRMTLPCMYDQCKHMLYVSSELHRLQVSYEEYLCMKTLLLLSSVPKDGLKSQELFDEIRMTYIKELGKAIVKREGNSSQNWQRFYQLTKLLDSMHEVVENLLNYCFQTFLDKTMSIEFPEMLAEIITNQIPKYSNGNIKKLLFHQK

[16] = biological target: Histamine H1 receptor (Homo sapiens) (UniProt P35367); experiment: H1 Eurofins-Cerep binding assay; parameters: ligand concentration 1 nM; conditions: Compound concentration 10.0 uM
[17] = biological target: Histamine H2 receptor (Homo sapiens) (UniProt P25021); experiment: H2 Eurofins-Cerep binding assay; parameters: ligand concentration 0.075 nM; conditions: Compound concentration 10.0 uM
Rattus norvegicus [18] = species on record: Rattus norvegicus; experiment: KV channel Eurofins-Cerep binding assay; parameters: ligand concentration 0.01 nM; conditions: Compound concentration 10.0 uM
[19] = biological target: Muscarinic acetylcholine receptor M1 (Homo sapiens) (UniProt P11229); experiment: M1 Eurofins-Cerep binding assay; parameters: ligand concentration 2 nM; conditions: Compound concentration 10.0 uM
Chain of Muscarinic acetylcholine receptor M1 (Homo sapiens) (P11229 whole entry): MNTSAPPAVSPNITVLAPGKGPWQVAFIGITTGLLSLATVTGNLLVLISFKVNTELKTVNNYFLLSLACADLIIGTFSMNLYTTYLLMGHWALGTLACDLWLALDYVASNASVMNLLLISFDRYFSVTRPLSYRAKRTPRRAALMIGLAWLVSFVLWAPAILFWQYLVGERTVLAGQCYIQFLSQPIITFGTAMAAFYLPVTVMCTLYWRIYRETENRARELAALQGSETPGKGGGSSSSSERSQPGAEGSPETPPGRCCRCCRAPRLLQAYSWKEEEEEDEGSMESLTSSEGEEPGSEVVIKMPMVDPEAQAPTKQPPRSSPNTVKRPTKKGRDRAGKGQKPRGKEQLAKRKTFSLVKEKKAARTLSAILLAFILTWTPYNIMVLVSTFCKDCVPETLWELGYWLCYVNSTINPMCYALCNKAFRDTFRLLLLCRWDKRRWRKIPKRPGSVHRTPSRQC

[20] = biological target: Muscarinic acetylcholine receptor M2 (Homo sapiens) (UniProt P08172); experiment: M2 Eurofins-Cerep binding assay; parameters: ligand concentration 2 nM; conditions: Compound concentration 10.0 uM
[21] = biological target: Muscarinic acetylcholine receptor M3 (Homo sapiens) (UniProt P20309); experiment: M3 Eurofins-Cerep binding assay; parameters: ligand concentration 0.2 nM; conditions: Compound concentration 10.0 uM
[22] = biological target: Mu-type opioid receptor (Homo sapiens) (UniProt P35372); experiment: mu (MOP) Eurofins-Cerep binding assay; parameters: ligand concentration 0.5 nM; conditions: Compound concentration 10.0 uM
[23] = biological target: Sodium-dependent noradrenaline transporter (Homo sapiens) (UniProt P23975); experiment: norepinephrine transporter Eurofins-Cerep binding assay; parameters: ligand concentration 1 nM; conditions: Compound concentration 10.0 uM
[24] = biological target: Vasopressin V1a receptor (Homo sapiens) (UniProt P37288); experiment: V1a Eurofins-Cerep binding assay; parameters: ligand concentration 0.3 nM; conditions: Compound concentration 10.0 uM
Neutrophil elastase [25] = biological target: T2, Neutrophil elastase (Homo sapiens, UniProt P08246); experiment: ELANE inhibitor assay (human). (Biochemical assay using purified commercial human ELANE and a fluorescent peptide substrate).
T2 sequence (P08246 whole entry): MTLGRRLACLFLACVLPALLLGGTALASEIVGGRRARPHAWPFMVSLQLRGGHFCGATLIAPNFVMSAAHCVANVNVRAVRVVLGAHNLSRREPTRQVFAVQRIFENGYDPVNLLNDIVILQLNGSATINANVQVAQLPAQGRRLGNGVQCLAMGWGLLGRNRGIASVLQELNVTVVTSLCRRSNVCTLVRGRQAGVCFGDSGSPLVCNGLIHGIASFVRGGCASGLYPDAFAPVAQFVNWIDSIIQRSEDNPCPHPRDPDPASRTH

Neutrophil elastase [26] = biological target: T2, Neutrophil elastase; experiment: Inhibition of zymosan-stimulated ELANE activity in human plasma
[27] = biological target: Adenosine receptor A1 (Homo sapiens) (UniProt P30542); experiment: A1 Eurofins-Cerep binding assay; parameters: ligand concentration 1 nM
Chain of Adenosine receptor A1 (Homo sapiens) (P30542 whole entry): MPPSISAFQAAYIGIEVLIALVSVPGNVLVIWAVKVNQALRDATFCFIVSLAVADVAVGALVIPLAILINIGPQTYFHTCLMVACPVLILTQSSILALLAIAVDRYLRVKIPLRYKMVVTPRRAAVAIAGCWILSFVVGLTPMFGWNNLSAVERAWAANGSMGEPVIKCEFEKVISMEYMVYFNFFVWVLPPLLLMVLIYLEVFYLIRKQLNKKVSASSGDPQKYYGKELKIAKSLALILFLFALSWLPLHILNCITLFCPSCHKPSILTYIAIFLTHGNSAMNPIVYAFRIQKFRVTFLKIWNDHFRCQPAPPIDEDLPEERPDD

[28] = biological target: Type-2 angiotensin II receptor (Homo sapiens) (UniProt P50052); experiment: Activity against AT2/H in the Eurofins SafetyScreen44 (BI) by Radioactive Assay (Old_Cerep_7)
[29] = biological target: B2 bradykinin receptor (Homo sapiens) (UniProt P30411); experiment: Activity against B2/HUM in the Eurofins SafetyScreen44 (BI) by Radioactive Assay (Old_Cerep_8)
Chain of B2 bradykinin receptor (Homo sapiens) (P30411 whole entry): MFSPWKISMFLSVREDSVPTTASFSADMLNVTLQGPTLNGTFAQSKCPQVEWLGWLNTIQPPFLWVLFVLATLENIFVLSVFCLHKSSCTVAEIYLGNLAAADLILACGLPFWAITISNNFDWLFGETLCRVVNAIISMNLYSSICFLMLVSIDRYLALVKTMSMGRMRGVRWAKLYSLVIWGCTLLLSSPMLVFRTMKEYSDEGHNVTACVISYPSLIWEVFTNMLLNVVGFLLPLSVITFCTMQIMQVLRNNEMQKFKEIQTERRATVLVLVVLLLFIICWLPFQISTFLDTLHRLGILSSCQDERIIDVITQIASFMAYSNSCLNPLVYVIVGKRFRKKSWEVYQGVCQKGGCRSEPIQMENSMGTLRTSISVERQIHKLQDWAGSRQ

[30] = biological target: Melanocortin receptor 4 (Homo sapiens) (UniProt P32245); experiment: MC4 Eurofins-Cerep binding assay; parameters: ligand concentration 0.05 nM; conditions: Compound concentration 10.0 uM
[31] = biological target: Neurotensin receptor type 1 (Homo sapiens) (UniProt P30989); experiment: Activity against NT1/H in the Eurofins SafetyScreen44 (BI) by Radioactive Assay (Old_Cerep_27); conditions: Compound concentration 10.0 uM
[32] = biological target: Glutamate NMDA receptor (Rattus norvegicus) (UniProt P35439+Q00959+Q00960+Q00961+Q62645+Q8VHN2+Q9R1M7); experiment: PCP Eurofins-Cerep binding assay; type: protein-complex assay; conditions: Compound concentration 10.0 uM
Homo sapiens = species on record: Homo sapiens; experiment: sigma (non-selective) Eurofins-Cerep binding assay; type: protein assay; conditions: Compound concentration 10.0 uM
[33] = biological target: Neuropeptide Y receptor type 1 (Homo sapiens) (UniProt P25929); experiment: Y1 Eurofins-Cerep binding assay; parameters: ligand concentration 0.025 nM; conditions: Compound concentration 10.0 uM
[34] = biological target: Prostaglandin E2 receptor EP2 subtype (Homo sapiens) (UniProt P43116); experiment: Agonist activity in the Eurofins SafetyScreen44 (BI) against EP2(H) by Scintillation counting (Old_Cerep_18); conditions: Compound concentration 10.0 uM
Caspase-9 (Homo sapiens) = Caspase-9 (Homo sapiens) (UniProt P55211); conditions: Compound concentration 1.0 uM
Description: % Enzyme Activity of Caspase 9 in the Reaction Biology protease panel at 10.0 µM

[35] = biological target: 3',5'-cyclic-AMP phosphodiesterase 4D (Homo sapiens) (UniProt Q08499); experiment: Inhibitor of PDE4D2 in the Eurofins Cerep SafetyScreen44 (BI) by Scintillation counting (Cerep_4077); conditions: Compound concentration 10.0 uM

Chain of 5-hydroxytryptamine receptor 1A (Homo sapiens) (P08908 whole entry): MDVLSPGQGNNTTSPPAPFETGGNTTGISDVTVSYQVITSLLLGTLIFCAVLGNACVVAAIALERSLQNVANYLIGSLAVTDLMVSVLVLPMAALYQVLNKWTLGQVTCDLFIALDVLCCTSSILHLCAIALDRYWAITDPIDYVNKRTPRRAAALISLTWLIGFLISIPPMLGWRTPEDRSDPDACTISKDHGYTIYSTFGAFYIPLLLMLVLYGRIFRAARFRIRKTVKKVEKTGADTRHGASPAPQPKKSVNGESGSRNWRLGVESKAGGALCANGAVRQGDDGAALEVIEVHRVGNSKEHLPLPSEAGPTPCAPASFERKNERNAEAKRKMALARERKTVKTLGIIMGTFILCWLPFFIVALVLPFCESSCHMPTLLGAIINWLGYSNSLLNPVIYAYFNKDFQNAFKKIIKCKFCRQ

residual activity [1]: 72%
residual activity [3]: 130%
residual activity [4]: 108%
residual activity ([5]; Compound concentration 10.0 uM): 100%
residual activity ([5]; Compound concentration 30.0 uM): 83%
residual activity ([6]; Compound concentration 10.0 uM): 100%
residual activity ([6]; Compound concentration 30.0 uM): 100%
residual activity ([7]; Compound concentration 10.0 uM): 87%
residual activity ([7]; Compound concentration 30.0 uM): 92%
residual activity ([9]; Compound concentration 10.0 uM): 89%
residual activity ([9]; Compound concentration 30.0 uM): 89%
residual activity [10]: 96%
residual activity [12]: 110%
residual activity [13]: 101%
residual activity [14]: 99%
residual activity [15]: 107%
residual activity [16]: 108%
residual activity [17]: 114%
residual activity (Rattus norvegicus [18]): 102%
residual activity [19]: 103%
residual activity [20]: 121%
residual activity [21]: 84%
residual activity [22]: 82%
residual activity [23]: 98%
residual activity [24]: 102%
IC50 (Neutrophil elastase [25]): 0.0005 µM (active)
IC50 (Neutrophil elastase [26]): 0.0012 µM (active)
residual activity ([27]; Compound concentration 10.0 uM): 107%
residual activity ([27]; Compound concentration 30.0 uM): 102%
residual activity [30]: 92%
residual activity [32]: 104%
residual activity (Homo sapiens): 72%
residual activity [33]: 107%
% Enzyme Activity (relative to DMSO controls, average n=2) (Caspase-9 (Homo sapiens)): 98.8%
SMILES: CC(C)(O)CNC(=O)N1C(=O)N(c2cccc(C(F)(F)F)c2)C2=C(C(=O)CC2)[C@H]1c1ccc(C#N)cc1
residual activity [2]: 69%
residual activity (Rattus norvegicus [8]; Compound concentration 10.0 uM): 119%
residual activity (Rattus norvegicus [8]; Compound concentration 30.0 uM): 116%
residual activity [11]: 89%
residual activity ([28]; Compound concentration 10.0 uM): 92%
residual activity ([28]; Compound concentration 30.0 uM): 114%
residual activity ([29]; Compound concentration 10.0 uM): 107%
residual activity ([29]; Compound concentration 30.0 uM): 97%
residual activity [31]: 114%
residual activity [34]: 93%

residual activity [1]: 91%
residual activity [3]: 97%
residual activity [4]: 81%
residual activity ([5]; Compound concentration 10.0 uM): 109%
residual activity ([6]; Compound concentration 10.0 uM): 89%
residual activity ([7]; Compound concentration 10.0 uM): 101%
residual activity ([9]; Compound concentration 10.0 uM): 97%
residual activity [10]: 100%
residual activity [12]: 98%
residual activity [13]: 100%
residual activity [14]: 95%
residual activity [15]: 96%
residual activity [16]: 101%
residual activity [17]: 105%
residual activity (Rattus norvegicus [18]): 101%
residual activity [19]: 114%
residual activity [20]: 103%
residual activity [21]: 95%
residual activity [22]: 104%
residual activity [23]: 95%
residual activity [24]: 99%
IC50 (Neutrophil elastase [25]): 0.041 µM (not active)
IC50 (Neutrophil elastase [26]): 0.492 µM (not active)
% Enzyme Activity (relative to DMSO controls, average n=2) (Caspase-9 (Homo sapiens)): 92.6%
SMILES: CC(C)(O)CNC(=O)N1C(=O)N(c2cccc(C(F)(F)F)c2)C2=C(C(=O)CC2)[C@@H]1c1ccc(C#N)cc1
residual activity [2]: 111%
residual activity (Rattus norvegicus [8]; Compound concentration 10.0 uM): 101%
residual activity [11]: 99%
residual activity [35]: 114%
